Data from patent US7183267B2, “β-lactamase inhibitors and methods of use thereof” (priority 2003, dated 2007).
≈ marks a conversion by molar mass, not a printed value.

Columns and labels:
Assay type in all cases: cell-based
[1] = system: methicillin resistant S. aureus ATCC 33591 (MRSA-ATCC); assay: MIC assay, broth microdilution, MRSA-ATCC; conditions: Staphylococcus aureus, 24 h
Method: (1) methicillin resistant S. aureus ATCC 33591 (MRSA-ATCC). This strain was obtained from American Type Culture Collection (ATCC), Manassas, Md.;
(§1) The strains were processed according to procedures recommended by ATCC, or procedures that are routinely used. Single colonies of each organism were picked for purification to generate pure working cultures. Prior to each experiment each strain was subcultured on a fresh Mueller-Hinton agar plate (MHA).
(§2) Inocula for the MIC assays were prepared by transferring a tiny portion of one colony from a MHA plate to 2 ml of Mueller-Hinton broth (MHB) such that the estimated cell density was about 10^7 colony forming unit (CFU)/ml. This cell suspension was then further diluted 10-fold (to 10^6 CFU/ml) by transferring the 2 ml cell suspension to 18 ml of MHB. Addition of 50 μl of this dilute cell suspension to 50 μl of growth medium yielded the desired cell density, namely about 5×10^4 CFU/well, or 5×10^5 CFU/ml.
(§3) The MIC value of oxacillin was determined using the broth microdilution procedure recommended by the National Committee of Clinical Laboratory Standards (NCCLS, 2000).
(§4) The MIC experiments were performed in duplicate in 96-well microtiter plates using MHB. A stock solution of 2.6 mg/0.5 ml was prepared in dimethylsulfoxide (DMSO). A total of 8 two-fold serial dilutions were made with DMSO. Initial oxacillin doses used were (μg/ml): 64, 32, 16, 8, 4, 2, 1, and 0.5. Doses were adjusted in the confirmatory experiment, if needed, in order to establish an actual MIC value.
(§5) To each well of a 96 well microtiter plate was added 47.5 μl of MHB. A volume of 2.5 μl of each dilution of oxacillin was then transferred to appropriate wells containing the medium. All wells, except the sterility control wells, were then inoculated with 50 μl of a diluted cell suspension to give a final volume of 100 μl and a final cell density of 5×10^4 CFU/well. The volume in the sterility control wells was adjusted to 100 μl with MHB. A sterile pipette tip was used to mix the contents of each well (one tip was used going from the low to the high concentration in the same column). The microtiter plates were covered with the lids and were placed in large Stratagene Big Blue plates (Cat. # 400041). Four large kimwipes moistened with tap water were placed near the edges of the Stratagene plates to prevent evaporation of the medium. The microtiter plates were incubated for at least 24 hours at 35° C. The plates were then evaluated for growth in each well. Controls included: medium sterility and negative control (medium and bacteria only).
(§6) The procedure used to determine the antimicrobial activity of the compounds of the present invention was identical to the broth microdilution procedure described above with the exception of the preparation of the stock solutions. Stock solution at concentration of 40.96 mg/0.5 ml was prepared in DMSO for each of the compounds. A total of 8 two-fold dilutions were then made in DMSO. A volume of 2.5 μl of each dilution was delivered to appropriate wells. The initial doses used were (μg/ml): 512, 256, 128, 64, 32, 16, 8, and 4.
(§7) A numerical code was used to evaluate the extent of growth as indicated below. • 0: absence of growth • 1: barely visible (faint) growth • 2: fair growth but less than the negative solvent control • 3: growth is equivalent to the negative solvent control.
(§8) The lowest dose at which no visible growth is observed was determined to be the MIC value.
(§9) MIC assays were performed with oxacillin and the four compounds. Each of the compounds was tested at the following 8 doses (μg/ml): 512, 256, 128, 64, 32, 16, 8, and 4. Oxacillin was tested at the following 8 doses (μg/ml): 64, 32, 16, 8, 4, 2, 1, and 0.5.

[2] = system: methicillin resistant S. aureus from Stanford University Hospital (MRSA-SU); assay: MIC assay, broth microdilution, MRSA-SU; conditions: Staphylococcus aureus, MRSA, 24 h
Description: (2) methicillin resistant S. aureus from Stanford University Hospital Clinical Microbiology/Virology Laboratory (MRSA-SU). […] Such Staphylococci are also resistant to all penicillins, and all cephalosporins, in addition to all β-lactamase inhibitor combinations (including ampicillin/sulbactarn, amoxicillin/clavulanic acid, piperacillin/tazobactam), imipenem, and meropenem; and
as §1, §2, §3, §4, §5, §6, §7, §8, §9

[3] = system: methicillin resistant S. aureus from Stanford University Hospital (MRSA-SU); assay: Matrix system: oxacillin plus β-lactamase inhibitor, MRSA-SU
Method: as §5, §7, §8
The effect of the four compounds of the present invention on oxacillin resistance of the MRSA strains was determined using a matrix system. The β-lactamase inhibitors were tested at 5 doses against up to eleven concentrations of oxacillin. […] A 96-well microtiter plate was used for the matrix system. The procedure was identical to that described above for the MIC determination, with the exception that both oxacillin and one each of the β-lactamase inhibitors was added, 2.5 μl each, to the wells prior to addition of the test organisms.
Matrix Study:Oxacillin and Compound FL201 with MRSA-SU
Matrix Study: Oxacillin and Compound FL202 with MRSA-SU

COC(=O)c1cc(B(O)O)cc([N+](=O)[O-])c1 [Compound F1202]
MIC [1]: 16 µg/mL (≈ 71.1 µM)
MIC [2]: 256 µg/mL
MIC (oxacillin) ([3]; Table 18, in presence of F1202 16 μg/ml): 64 µg/mL
MIC (oxacillin) ([3]; Table 18, in presence of F1202 32 μg/ml): 4 µg/mL
MIC (oxacillin) ([3]; Table 18, in presence of F1202 64 μg/ml): 1 µg/mL
MIC (oxacillin) ([3]; Table 18, in presence of F1202 128 μg/ml): 0.25 µg/mL
growth score ([3]; Table 18, oxacillin 0, F1202 16 μg/ml): 3
growth score ([3]; Table 18, oxacillin 0, F1202 32 μg/ml): 3
growth score ([3]; Table 18, oxacillin 0, F1202 64 μg/ml): 3
growth score ([3]; Table 18, oxacillin 0, F1202 128 μg/ml): 1
growth score ([3]; Table 18, oxacillin 0, F1202 256 μg/ml): 0
growth score ([3]; Table 18, oxacillin 0.064 μg/ml + F1202 16 μg/ml): 1
growth score ([3]; Table 18, oxacillin 0.064 μg/ml + F1202 32 μg/ml): 1
growth score ([3]; Table 18, oxacillin 0.064 μg/ml + F1202 64 μg/ml): 1
growth score ([3]; Table 18, oxacillin 0.064 μg/ml + F1202 128 μg/ml): 1
growth score ([3]; Table 18, oxacillin 0.064 μg/ml + F1202 256 μg/ml): 0
growth score ([3]; Table 18, oxacillin 0.125 μg/ml + F1202 16 μg/ml): 1
growth score ([3]; Table 18, oxacillin 0.125 μg/ml + F1202 32 μg/ml): 1
growth score ([3]; Table 18, oxacillin 0.125 μg/ml + F1202 64 μg/ml): 1
growth score ([3]; Table 18, oxacillin 0.125 μg/ml + F1202 128 μg/ml): 1
growth score ([3]; Table 18, oxacillin 0.125 μg/ml + F1202 256 μg/ml): 0
growth score ([3]; Table 18, oxacillin 0.25 μg/ml + F1202 16 μg/ml): 1
growth score ([3]; Table 18, oxacillin 0.25 μg/ml + F1202 32 μg/ml): 1
growth score ([3]; Table 18, oxacillin 0.25 μg/ml + F1202 64 μg/ml): 1
growth score ([3]; Table 18, oxacillin 0.25 μg/ml + F1202 128 μg/ml): 0
growth score ([3]; Table 18, oxacillin 0.25 μg/ml + F1202 256 μg/ml): 0
growth score ([3]; Table 18, oxacillin 0.5 μg/ml + F1202 16 μg/ml): 1
growth score ([3]; Table 18, oxacillin 0.5 μg/ml + F1202 32 μg/ml): 1
growth score ([3]; Table 18, oxacillin 0.5 μg/ml + F1202 64 μg/ml): 1
growth score ([3]; Table 18, oxacillin 0.5 μg/ml + F1202 128 μg/ml): 0
growth score ([3]; Table 18, oxacillin 0.5 μg/ml + F1202 256 μg/ml): 0
growth score ([3]; Table 18, oxacillin 1 μg/ml + F1202 16 μg/ml): 1
growth score ([3]; Table 18, oxacillin 1 μg/ml + F1202 32 μg/ml): 1
growth score ([3]; Table 18, oxacillin 1 μg/ml + F1202 64 μg/ml): 0
growth score ([3]; Table 18, oxacillin 1 μg/ml + F1202 128 μg/ml): 0
growth score ([3]; Table 18, oxacillin 1 μg/ml + F1202 256 μg/ml): 0
growth score ([3]; Table 18, oxacillin 2 μg/ml + F1202 16 μg/ml): 1
growth score ([3]; Table 18, oxacillin 2 μg/ml + F1202 32 μg/ml): 1
growth score ([3]; Table 18, oxacillin 2 μg/ml + F1202 64 μg/ml): 0
growth score ([3]; Table 18, oxacillin 2 μg/ml + F1202 128 μg/ml): 0
growth score ([3]; Table 18, oxacillin 2 μg/ml + F1202 256 μg/ml): 0
growth score ([3]; Table 18, oxacillin 4 μg/ml + F1202 16 μg/ml): 1
growth score ([3]; Table 18, oxacillin 4 μg/ml + F1202 32 μg/ml): 0
growth score ([3]; Table 18, oxacillin 4 μg/ml + F1202 64 μg/ml): 0
growth score ([3]; Table 18, oxacillin 4 μg/ml + F1202 128 μg/ml): 0
growth score ([3]; Table 18, oxacillin 4 μg/ml + F1202 256 μg/ml): 0
growth score ([3]; Table 18, oxacillin 16 μg/ml + F1202 16 μg/ml): 1
growth score ([3]; Table 18, oxacillin 16 μg/ml + F1202 32 μg/ml): 0
growth score ([3]; Table 18, oxacillin 16 μg/ml + F1202 64 μg/ml): 0
growth score ([3]; Table 18, oxacillin 16 μg/ml + F1202 128 μg/ml): 0
growth score ([3]; Table 18, oxacillin 16 μg/ml + F1202 256 μg/ml): 0
growth score ([3]; Table 18, oxacillin 64 μg/ml + F1202 16 μg/ml): 0
growth score ([3]; Table 18, oxacillin 64 μg/ml + F1202 32 μg/ml): 0
growth score ([3]; Table 18, oxacillin 64 μg/ml + F1202 64 μg/ml): 0
growth score ([3]; Table 18, oxacillin 64 μg/ml + F1202 128 μg/ml): 0
growth score ([3]; Table 18, oxacillin 64 μg/ml + F1202 256 μg/ml): 0
growth score ([3]; Table 18, oxacillin 128 μg/ml + F1202 16 μg/ml): 0
growth score ([3]; Table 18, oxacillin 128 μg/ml + F1202 32 μg/ml): 0
growth score ([3]; Table 18, oxacillin 128 μg/ml + F1202 64 μg/ml): 0
growth score ([3]; Table 18, oxacillin 128 μg/ml + F1202 128 μg/ml): 0
growth score ([3]; Table 18, oxacillin 128 μg/ml + F1202 256 μg/ml): 0
growth score ([3]; Table 18, oxacillin 256 μg/ml + F1202 16 μg/ml): 0
growth score ([3]; Table 18, oxacillin 256 μg/ml + F1202 32 μg/ml): 0
growth score ([3]; Table 18, oxacillin 256 μg/ml + F1202 64 μg/ml): 0
growth score ([3]; Table 18, oxacillin 256 μg/ml + F1202 128 μg/ml): 0
growth score ([3]; Table 18, oxacillin 256 μg/ml + F1202 256 μg/ml): 0
